Measurements taken from patent US20080200393A1, “Method and Composition For Treating Angiogenesis and For Preventing Cancer Progression and Metastasis Comprising a Prostate Secretory Protein (Psp94) Family Member” (Ambrillia Biopharma Inc., priority 2004, published 2008).
Where no end group is shown, it is not given here.

Experiments:
Format in all cases: cell-based
RhoA = RhoA gene and protein expression in U-87 cells (Western blot, RT-PCR); conditions: U-87, 300 ug/ml, 48 hrs
Description: Specific manipulation of the GTPase Rho activity can be used to suppress or enhance the organizational behaviour of endothelial cells as well as it can restrict cancer cells proliferation. In particular, RhoA mediates cell contractility by organizing actin filaments which consequently regulates cell migration. […] Tests were carried out in order to determine whether the PCK3145 derivative affected RhoA gene and protein expression. U-87 cells were either treated with the PCK3145 derivative (300 ug/ml, 48 hrs). Results of this experiment confirm that the PCK3145 derivative induced endogenous RhoA protein expression in U-87 cells as assessed by Western blotting (FIG. 11A, FIG. 11C).

MMP-9 = assay: Western blot of MMP-9 in MatLyLu cell culture media; conditions: MatLyLu cells, 100 ug/ml, 500 ug/ml and 1 mg/ml, 72 hrs
Description: A separate western blot experiment was performed in which MatLyLu cells were treated with 100 ug/ml, 500 ug/ml and 1 mg/ml of the PCK3145 derivative for 72 hrs. At the end of the experiment, the media were collected and concentrated 5 times using Amicon centrifugal filter devices (3500 molecular weight cut-off).
Twenty five microliters samples were separated on SDS-PAGE gel under reducing conditions using pre-cast gels of 4-12% Bis-Tris (Invitrogen). Following electrophoresis, the proteins were transferred on nitrocellulose membrane. Non-specific binding sites were blocked using 5% skimmed milk in 10 mM phosphate buffer saline (PBS) containing 0.05% Tween-20 for 1 hour at room temperature. The membrane was later incubated with a primary antibody (monoclonal, RDI-MMP-9abm-2A5) at a concentration of 1 ug/ml (in 10 mM PBS, containing 0.5% bovine serum albumin (BSA) and 0.05% Tween-20) for 3 hours at room temperature.
The membranes were washed three times in PBS (5 minutes each wash) to remove non-specific binding and they were incubated with the secondary antibody (Rabbit anti-mouse IgG horseradish peroxidase-conjugated (Dako no. 0260)) at a dilution of 1:5000 for one hour. Detection of specific MMP-9 protein was made by incubating the membrane in ECL™ reagent (electro-chemoluminescence, Roche) and exposing to the X-ray film.

MT1-MMP = MT1-MMP expression in U-87 cells; conditions: 300 ug/ml
VEGFR-2 = molecular target: T1, VEGFR-2 (Homo sapiens, UniProt P35968); assay: VEGF-induced VEGFR-2 phosphorylation in HUVEC (immunoprecipitation, Western blot)
T1 construct: host or cells: HUVEC
T1 sequence (P35968 20-1356): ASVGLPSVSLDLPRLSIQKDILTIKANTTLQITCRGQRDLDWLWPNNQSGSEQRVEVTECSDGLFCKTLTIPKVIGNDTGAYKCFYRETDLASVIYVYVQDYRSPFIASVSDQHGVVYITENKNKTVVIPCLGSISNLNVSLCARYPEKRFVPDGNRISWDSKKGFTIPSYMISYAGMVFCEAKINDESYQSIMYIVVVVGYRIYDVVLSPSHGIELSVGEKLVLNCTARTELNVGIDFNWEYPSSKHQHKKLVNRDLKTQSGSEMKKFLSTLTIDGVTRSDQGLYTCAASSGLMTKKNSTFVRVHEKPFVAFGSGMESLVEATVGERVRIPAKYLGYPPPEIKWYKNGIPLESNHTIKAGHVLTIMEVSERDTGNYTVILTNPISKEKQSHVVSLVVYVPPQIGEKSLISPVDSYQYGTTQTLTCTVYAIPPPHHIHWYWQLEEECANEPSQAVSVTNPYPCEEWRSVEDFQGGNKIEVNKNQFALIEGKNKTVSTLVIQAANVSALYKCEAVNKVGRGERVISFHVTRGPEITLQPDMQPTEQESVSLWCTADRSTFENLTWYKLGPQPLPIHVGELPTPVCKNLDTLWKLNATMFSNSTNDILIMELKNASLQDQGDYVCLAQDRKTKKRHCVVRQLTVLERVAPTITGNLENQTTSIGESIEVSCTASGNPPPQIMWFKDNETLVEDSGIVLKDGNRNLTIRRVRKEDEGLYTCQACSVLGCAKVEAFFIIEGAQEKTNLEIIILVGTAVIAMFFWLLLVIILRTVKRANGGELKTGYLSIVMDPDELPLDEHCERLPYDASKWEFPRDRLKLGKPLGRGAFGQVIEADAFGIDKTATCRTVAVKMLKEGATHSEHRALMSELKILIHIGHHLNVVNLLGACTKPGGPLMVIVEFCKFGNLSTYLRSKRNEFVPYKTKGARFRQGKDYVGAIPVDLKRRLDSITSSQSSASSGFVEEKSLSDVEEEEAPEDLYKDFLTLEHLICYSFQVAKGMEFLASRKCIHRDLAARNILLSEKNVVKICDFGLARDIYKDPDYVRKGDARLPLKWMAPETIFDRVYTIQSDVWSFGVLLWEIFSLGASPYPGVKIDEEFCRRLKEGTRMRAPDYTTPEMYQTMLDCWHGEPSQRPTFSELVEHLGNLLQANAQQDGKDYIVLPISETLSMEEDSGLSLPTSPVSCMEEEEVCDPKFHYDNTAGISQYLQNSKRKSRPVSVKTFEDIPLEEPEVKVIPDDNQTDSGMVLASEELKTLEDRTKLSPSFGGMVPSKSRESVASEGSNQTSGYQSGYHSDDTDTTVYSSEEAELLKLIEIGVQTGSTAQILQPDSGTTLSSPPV
Description: Immunoprecipitation and immunoblotting procedures. After treatment, cells were washed once with phosphate-buffered saline (PBS) containing 1 mM sodium orthovanadate and were incubated in the same medium for 1 h at 4° C. The cells were solubilized on ice in lysis buffer (150 mM NaCl, 10 mM Tris-HCl, pH 7.4, 1 mM EDTA, 1 mM EGTA, 0.5% Nonidet P-40, 1% Triton X-100) containing 1 mM sodium orthovanadate. The cells were then scraped from the culture dishes and the resulting lysates were clarified by centrifugation at 10,000 g for 10 min; Protein concentrations were determined using the micro bicinchoninic acid method (Pierce). For immunoprecipitation studies, lysates were clarified by a 1 h incubation at 4° C. with a mixture of Protein A/Protein G Sepharose beads. After removal of the Sepharose beads by low-speed centrifugation, identical amounts of protein (200 μg) from each sample were transferred to fresh tubes and incubated in lysis buffer overnight at 4° C. in the presence of 2 μg/ml of specific antibodies. Immunocomplexes were collected by incubating the mixture with 25 μl (50% suspension) of Protein A- (rabbit primary antibody) or Protein G- (mouse primary antibody) Sepharose beads, for 2 h. Nonspecifically-bound material was removed by washing the beads three times in 1 ml of lysis buffer containing 1 mM sodium orthovanadate, and bound material was solubilized in 25 μl of two-fold concentrated Laemmli sample buffer (125 mM Tris-HCl (pH 6.8), 20% glycerol, 4% SDS, 10% β-mercaptoethanol, and 0.00125% bromphenol blue), boiled 5 min, and resolved by SDS-PAGE. […] The immunoreactive bands were quantified by scanning densitometry (Molecular Dynamics).
The multifunctionality of VEGF at the cellular level results from its ability to initiate a diverse, complex and integrated network of signaling pathways via its major receptor, VEGFR-2. […] After each treatment, equal amounts of protein were immunoprecipitated with anti-VEGFR-2 polyclonal antibodies and analysed by Western blotting.

## EWQTDNCETCTCYET (cysteine pairing not given here) [PCK3145 derivative, PCK3145 derivative with acetylaminomethyl groups on the three cysteines]
RhoA
  RhoA gene expression (RT-PCR): paralleled that of its gene expression
  endogenous RhoA protein expression (Western blotting): induced
MMP-9
  MMP-9 levels (western blot): dose-dependent reduction
MT1-MMP
  MT1-MMP expression: slight increase
VEGFR-2
  phosphorylation of VEGFR-2 induced by VEGF, dose dependence: dose-dependent
VEGFR-2; 300 μg/ml, 24 h
  phosphorylation of VEGFR-2 induced by VEGF: inhibited
